Experimental data from US20250026752A1, “POSITIVE ALLOSTERIC MODULATORS OF THE MUSCARINIC ACETYLCHOLINE RECEPTOR M4” (Vanderbilt University, priority 2021, published 2025).
pEC50: −log10 of the molar value.

Molecular target: T1, human mAChR M4 (Homo sapiens, UniProt P08173)
T1 construct: expressed in transfected cells; host or cells: CHO-K1 (ATCC), stably expressing hM4 and Gqi5
T1 sequence (P08173 1-479): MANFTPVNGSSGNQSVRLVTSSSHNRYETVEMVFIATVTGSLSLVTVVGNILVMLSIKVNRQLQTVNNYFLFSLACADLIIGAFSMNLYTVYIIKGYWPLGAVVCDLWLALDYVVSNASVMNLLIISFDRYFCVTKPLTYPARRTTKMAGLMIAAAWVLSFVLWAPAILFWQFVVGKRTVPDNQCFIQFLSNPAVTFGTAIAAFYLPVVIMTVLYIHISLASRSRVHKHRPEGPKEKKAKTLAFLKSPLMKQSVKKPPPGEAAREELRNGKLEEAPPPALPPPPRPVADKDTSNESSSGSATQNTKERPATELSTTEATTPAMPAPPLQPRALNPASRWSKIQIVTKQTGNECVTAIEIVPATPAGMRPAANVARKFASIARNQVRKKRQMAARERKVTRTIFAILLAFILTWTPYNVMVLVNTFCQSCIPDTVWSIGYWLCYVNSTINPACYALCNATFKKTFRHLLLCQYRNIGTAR
Assay: mAChR M4 cell-based functional assay: calcium flux (Fluo-4, FDSS), positive allosteric modulator activity on the EC20 acetylcholine response, hM4-Gqi5 CHO-K1 cells
Conditions: for Emax at 30 µM: CHO-K1, human M4, % ACh maximum at 30 μM; for pEC50: human M4, PAM activity on EC20 acetylcholine response, calcium flux, read-out: Human M4 EC50
Description: Human M4 cDNA, along with the chimeric G protein Gqi5, were transfected into Chinese hamster ovary (CHO-K1) cells purchased from the American Type Culture Collection using commercially available Lipofectamine 2000 transfection reagent (Dalby, B. et al., Methods (2004) 33(2), 95-103). hM4-Gqi5 cells were grown in Ham's F-12 medium containing 10% heat-inactivated fetal bovine serum (FBS), 20 mM […], 50 μg/mL G418 sulfate (CAS #108321-42-2), and 500 μg/mL Hygromycin B. rM4-Gqi5 cells were grown in DMEM containing 10% heat-inactivated FBS, 20 mM HEPES, 400 μg/mL G418 sulfate, and 500 μg/mL Hygromycin B.
For high throughput measurement of agonist-evoked increases in intracellular calcium, CHO-K1 cells stably expressing muscarinic receptors were plated in growth medium lacking G418 sulfate and hygromycin at 15,000 cells/20 μL/well in Greiner 384-well black-walled, tissue culture (TC)-treated, clear-bottom plates (VWR). Cells were incubated overnight at 37° C. and 5% C02. The next day, cells were washed using an ELX 405 (BioTek) with assay buffer; the final volume was then aspirated to 20 μL. Next, 20 μL of a 2.3 μM stock of Fluo-4/acetoxymethyl ester (Invitrogen, Carlsbad, CA), prepared as a 2.3 mM stock in DMSO and mixed in a 1:1 ratio with 10% (w/v) Pluronic F-127 and diluted in assay buffer, was added to the wells and the cell plates were incubated for 50 minutes at 37° C. and 5% C02. Dye was removed by washing with the ELX 405 and the final volume was aspirated to 20 μL. Compound master plates were formatted in an 11 point concentration-response curve (CRC) format (1:3 dilutions) in 100% DMSO with a starting concentration of 10 mM using a BRAVO liquid handler (Agilent). Test compound CRCs were then transferred to daughter plates (240 nL) using the Echo acoustic plate reformatter (Labcyte, Sunnyvale, CA) and then diluted into assay buffer (40 μL) to a 2× stock using a Thermo Fisher Combi (Thermo Fisher Scientific, Waltham, MA).
Calcium flux was measured using the Functional Drug Screening System (FDSS) 6000 or 7000 (Hamamatsu Corporation, Tokyo, Japan) as an increase in the fluorescent static ratio. Compounds were applied to cells (20 μL, 2×) using the automated system of the FDSS at 2-4 seconds into the protocol and the data were collected at 1 Hz. At 144 seconds, 10 μL of an EC20 concentration of the muscarinic receptor agonist acetylcholine was added (5×), followed by the addition of 12 μL of an EC80 concentration of acetylcholine at the 230 second time point (5×). Agonist activity was analyzed as a concentration-dependent increase in calcium mobilization upon compound addition. Positive allosteric modulator activity was analyzed as a concentration-dependent increase in the EC20 acetylcholine response. With the acetylcholine EC20 set as baseline, the test compound EC50 is determined as the concentration that produces an increase above baseline of 50% of the maximum increase in acetylcholine response elicted by the test compound. Antagonist activity was analyzed as a concentration-dependent decrease in the ECso acetylcholine response. Concentration-response curves were generated using a four-parameter logistical equation in XLFit curve fitting software (IDBS, Bridgewater, NJ) for Excel (Microsoft, Redmond, WA) or Prism (GraphPad Software, Inc., San Diego, CA).
Compounds were synthesized as described above. Activity (EC50 and Emax) was determined in the mAChR M4 cell-based functional assay as described above and the data are shown in Table 4. The compound numbers correspond to the compound numbers used in Examples 1-33 and Tables 1, 2, and 3.

`FC(F)(F)c1cnc2c(c1)CN(c1ncnc3ccc(Cl)cc13)CC2` [Compound 140, 6-chloro-4-[3-(trifluoromethyl)-7,8-dihydro-5H-1,6-naphthyridin-6-yl]quinazoline] gave an Emax at 30 µM of 105% and a pEC50 of 7.10.

`Fc1ccc2ncnc(N3CCc4ncc(C(F)(F)F)cc4C3)c2c1` [Compound 122, 6-fluoro-4-[3-(trifluoromethyl)-7,8-dihydro-5H-1,6-naphthyridin-6-yl]quinazoline] was tested, and the Emax at 30 µM was 89% and the pEC50 was 7.05.

In the case of `Cc1nn(C)cc1-c1cnc2c(c1)CN(c1nc(-c3cn(C)nc3C)nc3ccc(Cl)cc13)CC2` [Compound 188, 6-chloro-2-(1,3-dimethylpyrazol-4-yl)-4-[3-(1,3-dimethylpyrazol-4-yl)-7,8-dihydro-5H-1,6-naphthyridin-6-yl]quinazoline], the Emax at 30 µM was 68% and the pEC50 was 5.72.

In the case of `Cn1nccc1Nc1cnc2c(c1)CN(c1ncnc3ccc(F)cc13)CC2` [Compound 75, 6-(6-fluoroquinazolin-4-yl)-N-(2-methylpyrazol-3-yl)-7,8-dihydro-5H-1,6-naphthyridin-3-amine], the Emax at 30 µM was 100% and the pEC50 was 7.52.

For `Fc1ccc2nc(NC3CC(F)(F)C3)nc(N3CCc4ncc(C(F)(F)F)cc4C3)c2c1` [Compound 184, N-(3,3-difluorocyclobutyl)-6-fluoro-4-[3-(trifluoromethyl)-7,8-dihydro-5H-1,6-naphthyridin-6-yl]quinazolin-2-amine], the Emax at 30 µM was 93% and the pEC50 was 5.86.

Molecule `Cc1ncc(-c2cnc3c(c2)CN(c2ncnc4ccc(F)cc24)CC3)s1` [Compound 27, 5-[6-(6-fluoroquinazolin-4-yl)-7,8-dihydro-5H-1,6-naphthyridin-3-yl]-2-methyl-thiazole] has an Emax at 30 µM of 110% and a pEC50 of 6.77.

`C[C@@H]1CN(c2cnc3c(c2)CN(c2ncnc4cc(F)c(F)cc24)CC3)CCO1` [Compound 241, (R)-4-(6-(6,7-difluoroquinazolin-4-yl)-5,6,7,8-tetrahydro-1,6-naphthyridin-3-yl)-2-methylmorpholine] showed an Emax at 30 µM of 77% and a pEC50 of 7.10.

Molecule `Fc1ccc2nc(C(F)(F)F)nc(N3CCc4ncc(N5CCOc6ncccc65)cc4C3)c2c1` [Compound 112, 1-[6-[6-fluoro-2-(trifluoromethyl)quinazolin-4-yl]-7,8-dihydro-5H-1,6-naphthyridin-3-yl]-2,3-dihydropyrido[2,3-b][1,4]oxazine] has an Emax at 30 µM of 92% and a pEC50 of 6.42.

`Cc1ncc(-c2cnc3c(c2)CN(c2nc(Cl)nc4ncccc24)CC3)s1` [Compound 35, 5-[6-(2-chloropyrido[2,3-d]pyrimidin-4-yl)-7,8-dihydro-5H-1,6-naphthyridin-3-yl]-2-methyl-thiazole] showed an Emax at 30 µM of 57% and a pEC50 of 6.21.

Work on `Fc1cc2ncnc(N3CCc4ncc(N5CCCn6nc(C(F)(F)F)cc65)cc4C3)c2cc1F` [Compound 278, 6,7-difluoro-4-(3-(2-(trifluoromethyl)-6,7-dihydropyrazolo[1,5-a]pyrimidin-4(5H)-yl)-7,8-dihydro-1,6-naphthyridin-6(5H)-yl)quinazoline] yielded an Emax at 30 µM of 76% and a pEC50 of 6.39.

With `Cc1nn(C)cc1-c1cnc2c(c1)CN(c1nc(Cl)nc3ncccc13)CC2` [Compound 9, 2-chloro-4-[3-(1,3-dimethylpyrazol-4-yl)-7,8-dihydro-5H-1,6-naphthyridin-6-yl]pyrido[2,3-d]pyrimidine] the Emax at 30 µM was 66% and the pEC50 was 5.60.

Work on `Cc1ncc(-c2cnc3c(c2)CN(c2nc(C(F)(F)F)nc4ccc(F)cc24)CC3)s1` [Compound 66, 5-[6-[6-fluoro-2-(trifluoromethyl)quinazolin-4-yl]-7,8-dihydro-5H-1,6-naphthyridin-3-yl]-2-methyl-thiazole] yielded an Emax at 30 µM of 35% and a pEC50 of 6.09.

`FC(F)(F)c1cnc2c(c1)CN(c1nc(Cl)nc3ccc(Cl)cc13)CC2` [Compound 141, 2,6-dichloro-4-[3-(trifluoromethyl)-7,8-dihydro-5H-1,6-naphthyridin-6-yl]quinazoline] was tested, and the Emax at 30 µM was 95% and the pEC50 was 6.66.

Molecule `Fc1ccc2nc(C(F)(F)F)nc(N3CCc4ncc(N5CCCn6nccc65)cc4C3)c2c1` [Compound 111, 4-[3-(6,7-dihydro-5H-pyrazolo[1,5-a]pyrimidin-4-yl)-7,8-dihydro-5H-1,6-naphthyridin-6-yl]-6-fluoro-2-(trifluoromethyl)quinazoline] has an Emax at 30 µM of 82% and a pEC50 of 6.40.

`Cc1nn(C)cc1-c1cnc2c(c1)CN(c1nc(Cl)nc3ccc(F)cc13)CC2` [Compound 31, 2-chloro-4-[3-(1,3-dimethylpyrazol-4-yl)-7,8-dihydro-5H-1,6-naphthyridin-6-yl]-6-fluoro-quinazoline] gave an Emax at 30 µM of 95% and a pEC50 of 6.64.

For `Cc1ccc(-c2cnc3c(c2)CN(c2nc(C)nc4ccc(F)cc24)CC3)cn1` [Compound 26, 6-fluoro-2-methyl-4-[3-(6-methyl-3-pyridyl)-7,8-dihydro-5H-1,6-naphthyridin-6-yl]quinazoline], the Emax at 30 µM was 102% and the pEC50 was 6.89.

In the case of `Cc1ccc(-c2cnc3c(c2)CN(c2nc(Cl)nc4cc(Cl)c(F)cc24)CC3)cn1` [Compound 63, 2,7-dichloro-6-fluoro-4-[3-(6-methyl-3-pyridyl)-7,8-dihydro-5H-1,6-naphthyridin-6-yl]quinazoline], the Emax at 30 µM was 26% and the pEC50 was 6.40.

Molecule `Cc1nc(N2CCc3ncc(Nc4cccnc4F)cc3C2)c2cc(Cl)ccc2n1` [Compound 72, 6-(6-chloro-2-methyl-quinazolin-4-yl)-N-(2-fluoro-3-pyridyl)-7,8-dihydro-5H-1,6-naphthyridin-3-amine] has an Emax at 30 µM of 84% and a pEC50 of 6.31.

In the case of `Clc1ccc2nc(Cl)nc(N3CCc4ncc(Br)cc4C3)c2c1` [Compound 149, 4-(3-bromo-7,8-dihydro-5H-1,6-naphthyridin-6-yl)-2,6-dichloro-quinazoline], the Emax at 30 µM was 97% and the pEC50 was 6.77.

Molecule `Fc1ccc2nc(N3CCOCC3)nc(N3CCc4ncc(C(F)(F)F)cc4C3)c2c1` [Compound 183, 4-[6-fluoro-4-[3-(trifluoromethyl)-7,8-dihydro-5H-1,6-naphthyridin-6-yl]quinazolin-2-yl]morpholine] has an Emax at 30 µM of 71% and a pEC50 of 6.59.

For `Cc1nc2c(cc1N1CCOC(C)(C)C1)CN(c1ncnc3ccc(F)cc13)CC2` [Compound 219, 4-(6-(6-fluoroquinazolin-4-yl)-2-methyl-5,6,7,8-tetrahydro-1,6-naphthyridin-3-yl)-2,2-dimethylmorpholine], the Emax at 30 µM was 60% and the pEC50 was 5.86.

In the case of `CC1CN(c2ncnc3ccc(F)cc23)Cc2cc(N(c3cccnc3)c3cccnc3)cnc21` (centres unmarked) [Compound 235, 6-(6-fluoroquinazolin-4-yl)-8-methyl-N,N-di(pyridin-3-yl)-5,6,7,8-tetrahydro-1,6-naphthyridin-3-amine], the Emax at 30 µM was 77% and the pEC50 was 6.20.
